From paper PMC8002893, “Influence of Complexation of Thiosemicarbazone Derivatives with Cu (II) Ions on Their Antitumor Activity against Melanoma Cells” (International Journal of Molecular Sciences, 2021)
Values joined by “and” are separate entries in the source; they are usually repeats but may differ in a detail not shown here. Equal values may be shown once.

Columns and labels:
[1] = test system: BJ human normal fibroblast cells; test: MTT cell viability assay, BJ normal fibroblasts; assay type: cell-based; conditions: MTT test, 24 h treatment
Method: (§1) The evaluation of cytotoxicity of tested compounds was carried out on the G361, A375, and SK-MEL-28 human melanoma cells and BJ human normal fibroblast cells. The cell lines were obtained from American Type Culture Collection (ATCC, Manassas, VA, USA). The cells were cultured at 37 °C in the presence of 5% CO2 in atmosphere. The culture medium (Dulbecco’s Modified Eagle’s Medium for G361 and A375 and Eagle’s Minimum Essential Medium for SK-MEL-28 and BJ) was supplemented with 10% foetal bovine serum. The cells morphology was examined under inverted phase contrast microscope Nikon Eclipse Ti (Nikon, Tokyo, Japan). The authenticity of tested cell lines was verified by short tandem repeat (STR) genotyping in the Department of Forensic Medicine (Medical University of Lublin, Lublin, Poland).
(§2) The cells were seeded into 96-well plates (in concentration: BJ, A375, and SK-MEL-28—1 × 10^5 cells/mL, G361—1.5 × 10^5 cells/mL) and cultured until they reach 70–80% confluency. Then the cells were incubated with tested compounds and dacarbazine in concentrations ranging from 10 to 500 µM or DMSO as vehicle in control cultures for next 24 h (max. DMSO concentration <0.5%). The compounds cytotoxicity was evaluated with the MTT colorimetric method based on the ability of viable cells to the transformation of tetrazolium salts (3-[4,5-dimethylthiazol-2-yl]-2,5-) diphenyltetrazolium bromide, MTT) to purple formazan, by cellular dehydrogenases. After 24-h-incubation cell cultures were supplemented with 20 µL of 5 mg/mL MTT (Thermofisher, Waltham, MA, USA) stock in PBS (Corning, NY, USA), and the incubation was continued for 4 h at 37 °C. Next, the medium with MTT was removed, and the formed crystals were dissolved in 200 µL of DMSO (dimethyl sulfoxide, Avantor, Gliwice, Poland). The solution absorbency was measured at 570 nm, using a PowerWave™ xs microplate spectrophotometer (BioTek Instruments, Winooski, VT, USA). The experiment was performed three times with three replicates for each concentration of tested compounds. IC50 values were determined using the AAT Bioquest IC50 calculator [51]. On the basis of obtained IC50 values for normal and malignant cells, A375 cell line and three tested compounds (CuT1, Cu10, CuT16) were chosen for further investigation.

[2] = test system: G361 human melanoma cells; test: MTT cell viability assay, G361 melanoma; assay type: cell-based; conditions: G361, MTT test, 24 h treatment
Method: as §1, §2

[3] = test system: A375 human melanoma cells; test: MTT cell viability assay, A375 melanoma; assay type: cell-based; conditions: for IC50: A375, MTT test, 24 h treatment; for toxicity to A375 / malignant cells versus normal cells (in words): from IC50 values, MTT, 24 h
Method: as §1, §2

[4] = test system: SK-MEL-28 human melanoma cells; test: MTT cell viability assay, SK-MEL-28 melanoma; assay type: cell-based; conditions: SK-MEL-28, MTT test, 24 h treatment
Method: as §1, §2

DNA of A375 cells = test: DNA damage evaluation: number of AP sites; assay type: cell-based, human; conditions: A375, 24 h, concentration corresponding to IC50; control 0.67 ± 0.08
Method: DNA damage was evaluated on the basis of a basic (AP) sites presence, that arose in response to oxidative damage or as an intermediate in base excision repair pathway. The A375 cells were seeded in 6-well culture plates at a density 1 × 10^5 cells/mL and after 70–80% confluency achievement the cells were treated with CuT1, Cu10, CuT16 in concentrations corresponding to IC50 values or DMSO as vehicle in control cultures. After 24 h of incubation genomic DNA was isolated using Syngen DNA Mini Kit (Syngen Biotech, Wroclaw, Poland) according to the manufacturer’s instruction. The concentrations of isolated DNA for all samples were equalized to 100 µg/mL. The measurements of the number of AP sites were evaluated with DNA Damage Quantification Kit (Dojindo, Japan) according to the manufacturer’s instruction. The DNA was treated with Aldehyde Reactive Probe (ARP) to tag all of the AP sites with a biotin residue. Then all of the AP sites were quantified using avidin—biotin assay. The coloured product of horseradish peroxidase conjugated to the avidin was detected at 650 nm using a PowerWave™ xs microplate spectrophotometer (BioTek Instruments, Winooski, VT, USA).

ERCC = test: qRT-PCR gene expression in A375 cells: ERCC; assay type: cell-based, human; conditions: A375, 24 h, concentration corresponding to IC50; RQ = 2^-ΔΔCt vs control
Method: (§3) The expression level of genes connected with DNA repair and oxidative stress response was evaluated with quantitative real-time PCR (qRT-PCR) method. The A375 cells were seeded in 6-well culture plates at a density 1 × 10^5 cells/mL and after 70–80% confluency achievement the cells were treated with CuT1, Cu10, CuT16 in concentrations corresponding to IC50 values or DMSO as vehicle in control cultures. After 24h of incubation total RNA was isolated using the Syngen Blood/Cell RNA Mini Kit (Syngen Biotech, Wroclaw, Poland). All samples were transcribed using NG dART RT-PCR reagents (EURx, Gdansk, Poland) according to the manufacturer’s instructions. The relative mRNA expression level was determined by relative quantification method (ΔΔCt) using 18S ribosomal N5 (RNA18SN5) and beta-actin (ACTB) as endogenous controls. The reference genes were selected on the basis of our preliminary studies, where RNA18SN5 and ACTB remained unaffected by the experimental conditions. The PCR was conducted in triplicate using Applied Biosystems® 7500 Fast Real-Time PCR system (Applied Biosystems, Foster City, CA, USA) and SG qPCR Master Mix (2×) (EURx, Gdansk, Poland) in accordance with the manufacturer’s protocol. Data was presented and analysed as RQ values (RQ = 2^−ΔΔCt).

MGMT = test: qRT-PCR gene expression in A375 cells: MGMT; assay type: cell-based, human; conditions: A375, 24 h, concentration corresponding to IC50; RQ = 2^-ΔΔCt vs control
Method: as §3

OGG1 = test: qRT-PCR gene expression in A375 cells: OGG1; assay type: cell-based, human; conditions: A375, 24 h, concentration corresponding to IC50; RQ = 2^-ΔΔCt vs control
Method: as §3

MLH1 = test: qRT-PCR gene expression in A375 cells: MLH1; assay type: cell-based, human; conditions: A375, 24 h, concentration corresponding to IC50; RQ = 2^-ΔΔCt vs control
Method: as §3

PARP1 = test: qRT-PCR gene expression in A375 cells: PARP1; assay type: cell-based, human; conditions: A375, 24 h, concentration corresponding to IC50; RQ = 2^-ΔΔCt vs control
Method: as §3

ATM = test: qRT-PCR gene expression in A375 cells: ATM; assay type: cell-based, human; conditions: A375, 24 h, concentration corresponding to IC50; RQ = 2^-ΔΔCt vs control
Method: as §3

XPC = test: qRT-PCR gene expression in A375 cells: XPC; assay type: cell-based, human; conditions: A375, 24 h, concentration corresponding to IC50; RQ = 2^-ΔΔCt vs control
Method: as §3

MSH2 = test: qRT-PCR gene expression in A375 cells: MSH2; assay type: cell-based, human; conditions: A375, 24 h, concentration corresponding to IC50; RQ = 2^-ΔΔCt vs control
Method: as §3

CAT = test: qRT-PCR gene expression in A375 cells: CAT; assay type: cell-based, human; conditions: A375, 24 h, concentration corresponding to IC50; RQ = 2^-ΔΔCt vs control
Method: as §3

GPX2 = test: qRT-PCR gene expression in A375 cells: GPX2; assay type: cell-based, human; conditions: A375, 24 h, concentration corresponding to IC50; RQ = 2^-ΔΔCt vs control
Method: as §3

SOD2 = test: qRT-PCR gene expression in A375 cells: SOD2; assay type: cell-based, human; conditions: A375, 24 h, concentration corresponding to IC50; RQ = 2^-ΔΔCt vs control
Method: as §3

A375 cells = test: Microscopic observation of cell morphology; assay type: cell-based, human; conditions: A375, 24 h, concentration corresponding to IC50
Method: The MTT test results for selected compounds were verified by microscopic observations of cell morphology. […] A large part of the cells floated in the culture medium (Figure 5).
as §1

Row | Structure (SMILES) | IC50 ([1]; Homo sapiens, Fibroblast) [µM] | IC50 ([2]; Homo sapiens, G-361) [µM] | IC50 ([3]; Homo sapiens, A-375) [µM] | IC50 ([4]; Homo sapiens) [µM] | melting point [°C] | IC50 [1] [µM] | IC50 [2] [µM] | IC50 [3] [µM] | IC50 [4] [µM] | further results
1 | COc1ccc(C=NNC(=S)Nc2ccc(Cl)cc2)cc1OC [T16] | > 500 | > 500 | > 500 | > 500 | 200 to 202 |  |  |  |  | 
2 | COc1ccc(C=NNC(=S)Nc2ccccc2C)cc1OC [T7, 2-[(3,4-Dimethoxyphenyl)methylidene]-N-(2-methylphenyl)hydrazine-1-carbothioamide] |  |  |  |  | 205 to 206 |  |  |  |  | 
3 | CC(=NNC(=S)Nc1ccccc1Cl)c1ccccc1 [T11, N-(2-Chlorophenyl)-2-(1-phenylethylidene)hydrazine-1-carbothioamide] |  |  |  |  | 115 to 117 |  |  |  |  | 
4 | S=C(NN=Cc1ccc(Br)cc1)Nc1cccc(Cl)c1.[Cl-].[Cl-].[Cu+2] [CuT13] |  |  |  |  |  | 130 ± 3.45 | 148 ± 9.77 | 110 ± 2.95 | 119 ± 9.75 | 
5 | COc1ccc(C=NNC(=S)Nc2ccc(Cl)cc2)cc1OC.[Cl-].[Cl-].[Cu+2] [CuT16] |  |  |  |  |  | 450 ± 11.7 | > 500 | 145 ± 19.9 | 478 ± 11 | toxicity to A375 / malignant cells versus normal cells (in words) [3]: less toxic for normal cells; AP sites number (DNA of A375 cells): 14.09 ± 0.44 AP/100 kbp; Mean RQ ERCC mRNA (ERCC): 0.267; Mean RQ MGMT mRNA (MGMT): 0.361; Mean RQ OGG1 mRNA (OGG1): 0.952; Mean RQ MLH1 mRNA (MLH1): 0.929; Mean RQ PARP1 mRNA (PARP1): 0.640; Mean RQ ATM mRNA (ATM): 2.724; Mean RQ XPC mRNA (XPC): 1.438; Mean RQ MSH2 mRNA (MSH2): 0.936; Mean RQ CAT mRNA (CAT): 0.387; Mean RQ GPX2 mRNA (GPX2): 0.022; Mean RQ SOD2 mRNA (SOD2): 1.393; cell morphology (in words) (A375 cells): became round and had poor adherence
6 | COc1ccc(C=NNC(=S)Nc2ccccc2Cl)cc1OC.COc1ccc(C=NNC(=S)Nc2ccccc2Cl)cc1OC.[Cl-].[Cl-].[Cu+2] [CuT10] |  |  |  |  |  | 203 ± 8.67 | 251 ± 11.1 | 26.1 ± 1.75 | 133 ± 8.34 | toxicity to A375 / malignant cells versus normal cells (in words) [3]: less toxic for normal cells; AP sites number (DNA of A375 cells): 2.043 ± 0.02 AP/100 kbp; Mean RQ ERCC mRNA (ERCC): 1.215; Mean RQ MGMT mRNA (MGMT): 0.448; Mean RQ OGG1 mRNA (OGG1): 0.264 ± 0.071 and 0.264; Mean RQ MLH1 mRNA (MLH1): 0.337; Mean RQ PARP1 mRNA (PARP1): 0.342; Mean RQ ATM mRNA (ATM): 2.038; Mean RQ XPC mRNA (XPC): 1.456; Mean RQ MSH2 mRNA (MSH2): 1.337; Mean RQ CAT mRNA (CAT): 0.801; Mean RQ GPX2 mRNA (GPX2): 0.022; Mean RQ SOD2 mRNA (SOD2): 1.430; cell morphology (in words) (A375 cells): became round and had poor adherence
7 | S=C(NN=Cc1ccc(Br)cc1)Nc1cccc(Cl)c1 [T13, 2-[(4-Bromophenyl)methylidene]-N-(3-chlorophenyl)hydrazine-1-carbothioamide] | 412.8 ± 3.23 | 396 ± 6.74 | 389 ± 7.06 | 399 ± 4.64 | 162 to 164 |  |  |  |  | 
8 | Cc1ccccc1NC(=S)NN=Cc1ccc(Br)cc1 [T6, 2-[(4-Bromophenyl)methylidene]-N-(2-methylphenyl)hydrazine-1-carbothioamide] |  |  |  |  | 178 to 180 |  |  |  |  | 
9 | S=C(NN=Cc1ccc(Cl)c(Cl)c1)Nc1ccc(Cl)cc1 [T17, N-(4-Chlorophenyl)-2-[(3,4-dichlorophenyl)methylidene]hydrazine-1-carbothioamide] |  |  |  |  | 202 to 204 |  |  |  |  | 
10 | COc1ccc(C=NNC(=S)Nc2ccccc2Cl)cc1OC [T10] | 402 ± 13 | 370 ± 9.34 | 202 ± 4.87 | < 500 | 179 to 180 |  |  |  |  | 
